One data set addresses T1, PvXyd3A (Paecilomyces variotii, UniProt A0A443HSR8).
T1 construct: gene C8Q69DRAFT_305813; native secreted enzyme purified from culture supernatant (Brewer's Spent Grain); 78 kDa; pI between 3 and 4; GH3; once misprinted PvXyd11A
T1 sequence (A0A443HSR8 28-800): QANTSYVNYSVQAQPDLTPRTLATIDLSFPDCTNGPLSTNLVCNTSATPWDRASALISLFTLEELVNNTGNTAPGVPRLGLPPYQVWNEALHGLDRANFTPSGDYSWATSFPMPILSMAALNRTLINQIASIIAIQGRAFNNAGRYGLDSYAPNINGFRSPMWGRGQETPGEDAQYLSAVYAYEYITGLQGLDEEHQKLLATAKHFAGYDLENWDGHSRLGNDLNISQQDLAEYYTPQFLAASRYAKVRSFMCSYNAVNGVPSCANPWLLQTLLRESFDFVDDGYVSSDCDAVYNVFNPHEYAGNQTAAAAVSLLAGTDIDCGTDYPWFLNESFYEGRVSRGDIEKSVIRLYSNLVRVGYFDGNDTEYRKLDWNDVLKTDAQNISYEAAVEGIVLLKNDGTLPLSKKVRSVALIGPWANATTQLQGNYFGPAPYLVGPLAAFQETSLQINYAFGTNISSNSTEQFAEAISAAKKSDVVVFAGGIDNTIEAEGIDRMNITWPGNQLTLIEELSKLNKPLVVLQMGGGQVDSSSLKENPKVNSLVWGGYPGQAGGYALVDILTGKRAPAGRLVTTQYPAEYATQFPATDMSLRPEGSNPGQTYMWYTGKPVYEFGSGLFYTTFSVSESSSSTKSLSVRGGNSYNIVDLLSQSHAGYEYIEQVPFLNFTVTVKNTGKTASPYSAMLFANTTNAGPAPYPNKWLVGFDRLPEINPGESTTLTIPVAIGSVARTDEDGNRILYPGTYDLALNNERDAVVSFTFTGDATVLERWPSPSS
The experiment in a line: pNP-X hydrolysis initial rates, Lineweaver-Burk. The data set is classed as biochemical. The settings on record: competitive; substrate pNP-X; xylose at 5, 20 and 50 mM; methods text misprints the enzyme as Xyn3A.

Substrate in the data set “purified protein”: O=[N+]([O-])c1ccc(O[C@@H]2OC[C@@H](O)[C@H](O)[C@H]2O)cc1
The experiment in a line: purified protein. The format is biochemical, Paecilomyces variotii. The settings on record: standard assay pH 4 citrate-phosphate, 50 °C, 0.1-20 mM pNP-X, Table 4 prints 0.45 ± 0.06 mM.

This passage reports Ki and Km results from PMC8228849, “Characterization of the Highly Efficient Acid-Stable Xylanase and β-Xylosidase System from the Fungus Byssochlamys spectabilis ATHUM 8891 (Paecilomyces variotii ATHUM 8891)” (Journal of Fungi, 2021).

The molecule `OC1OC[C@@H](O)[C@H](O)[C@H]1O` (some centres unmarked) [X1, xylose] yielded a Ki on PvXyd3A of 10.2 mM.

B1: PvXyd3A (Paecilomyces variotii) (protein)
chain: QANTSYVNYSVQAQPDLTPRTLATIDLSFPDCTNGPLSTNLVCNTSATPWDRASALISLFTLEELVNNTGNTAPGVPRLGLPPYQVWNEALHGLDRANFTPSGDYSWATSFPMPILSMAALNRTLINQIASIIAIQGRAFNNAGRYGLDSYAPNINGFRSPMWGRGQETPGEDAQYLSAVYAYEYITGLQGLDEEHQKLLATAKHFAGYDLENWDGHSRLGNDLNISQQDLAEYYTPQFLAASRYAKVRSFMCSYNAVNGVPSCANPWLLQTLLRESFDFVDDGYVSSDCDAVYNVFNPHEYAGNQTAAAAVSLLAGTDIDCGTDYPWFLNESFYEGRVSRGDIEKSVIRLYSNLVRVGYFDGNDTEYRKLDWNDVLKTDAQNISYEAAVEGIVLLKNDGTLPLSKKVRSVALIGPWANATTQLQGNYFGPAPYLVGPLAAFQETSLQINYAFGTNISSNSTEQFAEAISAAKKSDVVVFAGGIDNTIEAEGIDRMNITWPGNQLTLIEELSKLNKPLVVLQMGGGQVDSSSLKENPKVNSLVWGGYPGQAGGYALVDILTGKRAPAGRLVTTQYPAEYATQFPATDMSLRPEGSNPGQTYMWYTGKPVYEFGSGLFYTTFSVSESSSSTKSLSVRGGNSYNIVDLLSQSHAGYEYIEQVPFLNFTVTVKNTGKTASPYSAMLFANTTNAGPAPYPNKWLVGFDRLPEINPGESTTLTIPVAIGSVARTDEDGNRILYPGTYDLALNNERDAVVSFTFTGDATVLERWPSPSS
notes: native secreted enzyme purified from culture supernatant (Brewer's Spent Grain); 78 kDa; pI between 3 and 4; GH3; once misprinted PvXyd11A
Turning to B1, the Michaelis-Menten constant (Km) in “purified protein” amounted to 480 ± 60 µM.
